The source of these data is US10590086B2, “Pharmaceutical compound” (IOmet Pharma Ltd., priority 2014, dated 2020).

For assay [1], the target named is T1, IDO (Homo sapiens, UniProt P14902). Briefly: hIDO biochemical coupled assay. As to conditions: 45 μM L-tryptophan, 17 minutes, room temperature; read-out: hIDO biochemical assay pIC50 (converted).
Another assay addresses TDO (Homo sapiens, UniProt P48775). Briefly: A172 kynurenine cell-based assay. On the set-up: This assay utilised cancer cells which expressed either TDO or IDO; endogenous in cells; host or cells: A172 (human glioblastoma). The conditions noted are these: A172 human glioblastoma cells, 48 hours, 500 μM L-tryptophan; read-out: A172 Kynurenine cell based assay pIC50 (converted). In short, it runs like this: (§1)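 Cellular kynurenine production, TDO via A172 glioblastoma and IDO via IFN-γ-stimulated SKOV3 ovarian adenocarcinoma cells, was quantified after 48 hours' compound treatment in 500 μM L-tryptophan medium, using Erhlich's reagent and absorbance at 490 nm.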

In assay [2] the target is T1, IDO. Briefly: SKOV3 kynurenine cell-based assay (IDO induced by IFN-γ). On the set-up: IDO expression was induced in the SKOV3 cells by the addition of 500 ng/ml IFN-γ; endogenous in cells; host or cells: SKOV3 (human ovarian adenocarcinoma), induced with IFN-γ. The conditions noted are these: SKOV3 human ovarian adenocarcinoma cells, 500 ng/ml IFN-γ, 48 hours, 500 μM L-tryptophan; read-out: SKOV3 Kynurenine cell based assay pIC50 (converted). The gist of the method: as §1

T1 sequence (P14902 whole entry): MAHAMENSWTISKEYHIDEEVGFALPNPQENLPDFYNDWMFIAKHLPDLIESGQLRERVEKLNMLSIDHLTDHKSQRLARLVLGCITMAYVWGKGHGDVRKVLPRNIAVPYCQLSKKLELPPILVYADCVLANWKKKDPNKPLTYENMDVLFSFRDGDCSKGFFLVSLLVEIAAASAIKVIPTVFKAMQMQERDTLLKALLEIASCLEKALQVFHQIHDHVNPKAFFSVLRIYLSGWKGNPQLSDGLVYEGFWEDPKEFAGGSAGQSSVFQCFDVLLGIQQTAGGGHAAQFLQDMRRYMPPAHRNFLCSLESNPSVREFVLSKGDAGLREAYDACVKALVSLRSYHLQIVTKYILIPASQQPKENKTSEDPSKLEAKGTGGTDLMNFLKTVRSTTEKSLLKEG
TDO, sequence (P48775 whole entry): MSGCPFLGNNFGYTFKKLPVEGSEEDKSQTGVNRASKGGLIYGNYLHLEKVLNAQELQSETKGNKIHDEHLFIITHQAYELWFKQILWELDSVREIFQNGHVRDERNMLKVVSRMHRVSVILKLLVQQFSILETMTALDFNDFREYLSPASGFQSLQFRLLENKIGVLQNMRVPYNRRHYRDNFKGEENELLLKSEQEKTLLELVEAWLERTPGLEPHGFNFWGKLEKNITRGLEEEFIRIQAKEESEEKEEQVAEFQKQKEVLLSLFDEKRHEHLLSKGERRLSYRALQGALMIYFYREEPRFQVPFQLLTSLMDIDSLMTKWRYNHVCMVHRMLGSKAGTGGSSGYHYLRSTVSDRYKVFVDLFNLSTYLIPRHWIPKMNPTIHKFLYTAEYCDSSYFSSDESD

With `CS(=O)(=O)NCc1ccc(-c2cc(Cl)cc3[nH]ncc23)cc1` [Compound 292], the IC50 at IDO [1] was over 100 µM; at TDO, under 3.16 µM; on IDO [2] it was 3.24 to 31.6 µM.
In the same order, the values of `CC(C)NC(=O)c1cc(Cl)cc2[nH]ncc12` [Compound 236] are over 100 µM, 32.4 to 100 µM and 32.4 to 100 µM.
For `O=C(NCC1CCCCC1)c1cc(Cl)cc2[nH]ncc12` [Compound 258], the figures for the IC50 at IDO [1], at TDO and on IDO [2] were over 100 µM, over 100 µM and 3.24 to 31.6 µM, respectively.
`CC(=O)N1CCC(c2cc(OC(F)(F)F)cc3[nH]ncc23)CC1` [Compound 275]: the IC50 was over 100 µM on IDO [1], 32.4 to 100 µM on TDO and 32.4 to 100 µM on IDO [2].
Regarding `CN(C)C(=O)C1CCN(c2cc(Cl)cc3[nH]ncc23)C1` (centres unmarked) [Compound 263], the IC50 on IDO [1], on TDO and at IDO [2] was 3.24 to 31.6 µM throughout.
In the case of `CN(C)C(=O)C1CCN(c2cc(Cl)cc3[nH]ncc23)CC1` [Compound 225], the IC50 at IDO [1], on TDO and at IDO [2] was 3.24 to 31.6 µM throughout.
Turning to `O=C(O)c1ccc(-c2cc(Cl)cc3[nH]ncc23)cc1` [Compound 253], the IC50 at IDO [1] was over 100 µM; on TDO it was under 3.16 µM; on IDO [2], over 100 µM.
`CC(C)CNC(=O)c1cc(Cl)cc2[nH]ncc12` [Compound 238]: the results for the IC50 at IDO [1], at TDO and at IDO [2] were over 100 µM, 3.24 to 31.6 µM and 32.4 to 100 µM, respectively.
In the same order, the values of `CC(=O)N1CCC(c2cc(C(C)C)cc3[nH]ncc23)CC1` [Compound 222] are 3.24 to 31.6 µM, 3.24 to 31.6 µM and 32.4 to 100 µM.
The like results for `CC(=O)NCC1CCN(c2cc(Cl)cc3[nH]ncc23)CC1` [Compound 270] were, in that order, 3.24 to 31.6 µM, under 3.16 µM and 3.24 to 31.6 µM.
On to `CC(=O)NCc1ccc(-c2cc(Cl)cc3[nH]ncc23)cc1` [Compound 276], for which the IC50 on IDO [1] is over 100 µM; on TDO it was under 3.16 µM; on IDO [2] it was 3.24 to 31.6 µM.
In the same order, the values of `CCNC(=O)c1cc(Cl)cc2[nH]ncc12` [Compound 261] are over 100 µM, 32.4 to 100 µM and over 100 µM.
In the same order, the values of `CNc1ccc(-c2cc(Cl)cc3[nH]ncc23)cn1` [Compound 241] are over 100 µM, 3.24 to 31.6 µM and 3.24 to 31.6 µM.
As for `CN(CCNc1cccc2[nH]ncc12)S(C)(=O)=O` [Compound 62], the IC50 is 32.4 to 100 µM on TDO and over 100 µM on IDO [2].
The like results for `CS(=O)(=O)N1CCC(Nc2cccc3[nH]ncc23)CC1` [Compound 75] were, in that order, 32.4 to 100 µM and over 100 µM.
In the same order, the values of `CNS(=O)(=O)N1CCN(c2cc(Cl)cc3[nH]ncc23)CC1` [Compound 114] are under 3.16 µM and 3.24 to 31.6 µM.
In the same order, the values of `CC(=O)N1CCC(c2cccc3[nH]ncc23)CC1(C)C` (centres unmarked) [Compound 190] are under 3.16 µM and 3.24 to 31.6 µM.
Regarding `CC(C)c1cc(N2CCN(S(C)(=O)=O)CC2)c2cn[nH]c2c1` [Compound 67], the values for the IC50 on TDO and at IDO [2] were 3.24 to 31.6 µM and 32.4 to 100 µM, respectively.
The like results for `Clc1cc(N2CCN(c3ccccc3)CC2)c2cn[nH]c2c1` [Compound 92] were, in that order, under 3.16 µM and 3.24 to 31.6 µM.
In the same order, the values of `NS(=O)(=O)N1CCN(c2cccc3[nH]ncc23)CC1` [Compound 20] are 3.24 to 31.6 µM and 3.24 to 31.6 µM.
With `CS(=O)(=O)N1CC2CC1CN2c1cc(Cl)cc2[nH]ncc12` (centres unmarked) [Compound 202], the IC50 on TDO was under 3.16 µM; on IDO [2], 32.4 to 100 µM.
In the same order, the values of `CS(=O)(=O)N1CCN(c2ccc3[nH]ncc3c2)CC1` [Compound 43] are 3.24 to 31.6 µM and 32.4 to 100 µM.
In the same order, the values of `CS(=O)(=O)N1CCC(F)(c2cc(Cl)cc3[nH]ncc23)CC1` [Compound 124] are under 3.16 µM and 3.24 to 31.6 µM.
